This note sets out measurements from patent publication US9347013B2, “Natural oil derivative based thickener components used in grease compositions and processes for making such compositions” (Elevance Renewable Sciences, Inc., priority 2014, dated 2016).

Series [1] is described as follows: Log P (oil solubility) of grease complexing agents. As to conditions: more oil soluble than azelaic acid.

The structures appear in SMILES notation.

In general, logP refers to the decadic logarithm of the partition coefficient of the neutral form, usually between octanol and water. Read a low logP as lower lipophilicity. Molecule `O=C(O)CCCCCCCC(=O)O` [Azelaic (C9), azelaic acid, reference compound] had a lipophilicity (logP) in “physchem” of 2.01.
`O=C(O)CCCCCCCCCCCCCCCCC(=O)O` [ERS ODDA (C18), octadecanedioic acid]: the “oil solubility relative to azelaic acid” value in series [1] is listed as “about 1.5 times”. The same molecule registered a logP in the series “physchem” of 3.
